Experimental data from patent US10899962B2, “Camera module, lubricant composition, and electronic device” (Samsung Electro-Mechanics Co., Ltd., priority 2018, dated 2021).

Assay: solubility of the fluorinated fluorescent material at varied concentrations (FIG. 8, FIG. 11)
Assay type: physicochemical
Conditions: concentrations shown 0.25 wt %, 0.5 wt %, and 1 wt %
From the text: More specifically, when using a compound represented by Chemical Formula 1, for example, a compound represented by Chemical Formula 1-1 for the fluorinated fluorescent material, the fluorinated fluorescent material is included, for example, in an amount from 0.1 wt % to less than 0.5 wt %, or even, for example, in an amount from 0.1 wt % to 0.3 wt %. This can be confirmed from FIG. 8 to FIG. 10. […] Referring to the drawings, it can be seen that solubility issues occur in concentrations of 0.5 wt % or higher. FIG. 9 and FIG. 10 show the fluorescence of a lubricant composition containing 0.25 wt % of a compound represented by Chemical Formula 1-1. […] From the drawings, it can be seen that the presence of the lubricant can be easily detected after application of the lubricant composition.
Furthermore, when using a compound represented by Chemical Formula 2, for example, a compound represented by Chemical Formula 2-1 for the fluorinated fluorescent material, the fluorinated fluorescent material is included, for example, in an amount from 0.01 wt % to less than 1.0 wt %, or even included, for example, in an amount from 0.03 wt % to 0.15 wt %. This can be confirmed from FIG. 11. […] Referring to the drawing, it can be seen that solubility issues occur in concentrations of 1.0 wt % or higher.

With `CCN(CC)c1ccc2c(C)cc(=O)oc2c1` [Chemical Formula 1-1] the “concentrations in which solubility issues occur” value was at least 0.5 wt %.
